Reference: patent US20090042894A1, “NOVEL SPECIES OF ACROCARPOSPORA, A METHOD OF PREPARING IODININ, AND THE USES OF IODININ” (FOOD INDUSTRY RESEARCH AND DEVELOPMENT INSTITUTE, priority 2007, published 2009)

Tests used:
Type in all cases: cell-based
Conditions in all cases: iodinin 10 μg/ml, 72 hours
[1] = system: MRC-5 (embryonal lung, normal, human); test: MTT assay, cytotoxic effect on MRC-5 cells
Procedure: (§1) Cell growth inhibitory effects were determined by an MTT assay after treating the cell lines with 2, 5, and 10 μg/ml of iodinin for 72 hours. Mean±SE of four independent experiments are shown. The cytotoxic activity of the compound iodinin was tested in vitro in MRC-5, AGS, HeLa, HepG2 and MCF-7 cell lines.
(§2) MRC-5 (embryonal lung, normal, human, BCRC60023), AGS (Human gastric adenocarcinoma, BCRC 60102), HeLa (Human cervical epithelioid carcinoma, BCRC 60005), HepG2 (Human hepatoblastoma, BCRC 60177), and MCF7 (human breast adenocarcinoma, BCRC 60436) were purchased from BCRC, Food Industry Research and Development Institute, Taiwan. […]
(§3) The cytotoxic activities of the compound, iodinin, against all cell lines were assayed by a modified MTT [3-(4,5-dimethylthiazole-2-yl)-2,5-diphenyltetrazolium bromide] […] After 3 days of incubation, the cell numbers for each of the cell lines were determined by the following MTT assay: 20 μl of 1 mg/ml of MTT were added to each well of the plates, and the plates were then incubated at 37° C. for 5 hours. Formazan crystals were redissolved in 100 μl of DMSO (Merck) for 10 minutes via shaking, and the plates were read immediately on an ELISA reader (Bio-Tek) at a wavelength of 540 nm (Mosmann, 1983).

[2] = system: AGS (Human gastric adenocarcinoma); test: MTT assay, cytotoxic effect on AGS cells
Procedure: as §1, §2, §3

[3] = system: HeLa (Human cervical epithelioid carcinoma); test: MTT assay, cytotoxic effect on HeLa cells
Procedure: as §1, §2, §3

[4] = system: HepG2 (Human hepatoblastoma); test: MTT assay, cytotoxic effect on HepG2 cells
Procedure: as §1, §2, §3

[5] = system: MCF-7 (human breast adenocarcinoma); test: MTT assay, cytotoxic effect on MCF-7 cells
Procedure: as §1, §2, §3

SMILES: [O-][n+]1c2cccc(O)c2[n+]([O-])c2cccc(O)c21 [iodinin, 1,6-phenazinediol 5,10-dioxide]
- percentage of cell survival [1]: 47%
- percentage of cell survival [2]: 8%
- percentage of cell survival [3]: 26%
- percentage of cell survival [4]: 40%
- percentage of cell survival [5]: 29%
